Patent US7060692B2, “Active ingredient combinations comprising insecticidal and acaricidal properties” (priority 2000, dated 2006)

What was measured:
Myzus persicae = experiment: Myzus test (cabbage leaves dipped); format: in vivo; conditions: single active compound, 1.6 ppm, cabbage leaves (Brassica oleracea) dipped
Procedure: (§1) To produce a suitable preparation of active compound, 1 part by weight of active compound is mixed with the stated amounts of solvent and emulsifier, and the concentrate is diluted with water to the desired concentrations.
Cabbage leaves (Brassica oleracea), which are heavily infested by the peach aphid (Myzus persicae) are treated by being dipped into the preparation of active compound of the desired concentration.
After the desired period of time, the kill in % is determined. 100% means that all animals have been killed; 0% means that none of the animals have been killed. The kill rates determined are calculated using Colby's formula.

Aphis gossypii = Aphis gossypii test (cotton leaves dipped); format: in vivo; conditions: single active compound, 1.6 ppm, cotton leaves (Gossypium hirsutum) dipped
Procedure: as §1
Cotton leaves (Gossypium hirsutum), which are heavily infested by the cotton aphid (Aphis Gossypii) are treated by being dipped into the preparation of active compound of the desired concentration.
After the desired period of time, the kill in % is determined. 100% means that all aphids have been killed; 0% means that none of the aphids have been killed. The kill rates determined are calculated using Colby's formula.

Structure (SMILES) | Kill rate in % after 6d (Myzus persicae) [%] | Kill rate in % after 6d (Aphis gossypii) [%]
CC[S+]([O-])CCSP(=O)(OC)OC (centres unmarked) [oxydemeton-methyl] | 0 | –
Cc1nc(N(C)C)nc(OC(=O)N(C)C)c1C [pirimicarb] | – | 5
